Measured values taken from patent US9856279B2 (AGIOS PHARMACEUTICALS, INC, priority 2011, dated 2018).

Legend:
IDH1 R132H = IDH1 R132H (Homo sapiens, UniProt O75874, R132H); test: Assay for IDH1 R132H inhibitors (NADPH/aKG, resazurin detection); assay type: biochemical; details: enzyme assay of Example 12; read-out: IDH1R132H IC50
Procedure, shortened: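 Compound added to substrate mix (8 uM NADPH, 2 mM aKG), then enzyme mix (0.2 μg/ml IDH1 R132H); 50 min RT in 20 mM Tris pH 7.5, 150 mM NaCl, 10 mM MgCl2, 0.03% BSA. Resazurin detection mix (30 μM) 5 min RT; resorufin fluorescence Ex544/Em590.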

HT1080 cells = test: Cellular assay for IDH1m inhibitors: inhibition of 2-HG production (LC-MS, 48 hours) in HT1080 cells; assay type: cell-based; details: Homo sapiens, HT-1080; inhibition of 2-HG production, HT1080 cells; read-out: HT1080 IC50
Procedure, shortened: (§1)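 HT1080 or U87MG cells were seeded at 5000/well in DMEM with 10% FBS, incubated overnight, then treated with compounds (0.2% DMSO final) for 48 h. Medium 2-HG was quantified by LC-MS, and IC50 was taken as the concentration reducing 2-HG by 50% versus DMSO control.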

U87MG cells = test: Cellular assay for IDH1m inhibitors: inhibition of 2-HG production (LC-MS, 48 hours) in U87MG cells; assay type: cell-based; details: Homo sapiens, U-87 MG, inhibition of 2-HG production, U87R132H cells; read-out: U87R132H IC50
Procedure, shortened: as §1

Sequence of IDH1 R132H (O75874 whole entry R132H): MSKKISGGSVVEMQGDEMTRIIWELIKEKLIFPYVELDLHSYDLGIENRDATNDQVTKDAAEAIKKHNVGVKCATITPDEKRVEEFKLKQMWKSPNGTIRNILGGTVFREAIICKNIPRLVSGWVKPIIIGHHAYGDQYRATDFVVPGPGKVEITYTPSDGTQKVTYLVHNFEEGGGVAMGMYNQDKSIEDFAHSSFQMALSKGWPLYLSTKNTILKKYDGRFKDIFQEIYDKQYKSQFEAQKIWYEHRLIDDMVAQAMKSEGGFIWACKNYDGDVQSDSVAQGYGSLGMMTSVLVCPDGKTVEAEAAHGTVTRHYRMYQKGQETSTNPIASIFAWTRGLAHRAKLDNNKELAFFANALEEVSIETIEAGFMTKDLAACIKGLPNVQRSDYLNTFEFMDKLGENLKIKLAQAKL

Structure (SMILES)	IC50 (IDH1 R132H)	IC50 (HT1080 cells)	IC50 (U87MG cells)
C=Cc1cc(-c2cc(C#N)c(N3CCN(C(=O)CC(F)(F)F)[C@H](C)C3)nc2C2CC2)ccn1 [Compound 444, (R)-2-cyclopropyl-6-(3-methyl-4-(3,3,3-trifluoropropanoyl)piperazin-1-yl)-2′-vinyl-3,4′-bipyridine-5-carbonitrile]	< 500 nM	< 500 nM	< 500 nM
C=CS(=O)(=O)N(C)c1cccc(-c2cc(C#N)c(N3CCN(C(=O)CCOC)[C@H](C)C3)nc2C2CC2)c1 [Compound 446]	< 500 nM	< 500 nM	1000 to 10000 nM
COCCC(=O)N1CCN(c2nc(C3CC3)c(-c3cccc(NC(=O)[C@H](C)Cl)c3)cc2C#N)C[C@H]1C [Compound 447, (S)-2-chloro-N-(3-(5-cyano-2-cyclopropyl-6-((R)-4-(3-methoxypropanoyl)-3-methylpiperazin-1-yl)pyridin-3-yl)phenyl)propanamide]	500 to 1000 nM	1000 to 10000 nM	1000 to 10000 nM
CCS(=O)(=O)Nc1cccc(-c2cc(C#N)c(N3CCN(C(=O)CCOC)[C@H](C)C3)nc2C2CC2)c1 [Compound 448, (R)—N-(3-(5-cyano-2-cyclopropyl-6-(4-(3-methoxypropanoyl)-3-methylpiperazin-1-yl)pyridin-3-yl)phenyl)ethanesulfonamide]	< 500 nM	1000 to 10000 nM	1000 to 10000 nM
C=C(C)C(=O)Nc1cccc(-c2cc(C#N)c(N3CCN(C(=O)CCOC)[C@H](C)C3)nc2C2CC2)c1 [Compound 449, (R)—N-(3-(5-cyano-2-cyclopropyl-6-(4-(3-methoxypropanoyl)-3-methylpiperazin-1-yl)pyridin-3-yl)phenyl)methacrylamide]	500 to 1000 nM	1000 to 10000 nM	1000 to 10000 nM
C=CS(=O)(=O)Nc1cccc(-c2cc(C#N)c(N3CCN(C(=O)C4CC4)[C@H](C4CC4)C3)nc2C2CC2)c1 [Compound 451]	< 500 nM	1000 to 10000 nM	1000 to 10000 nM
C=CS(=O)(=O)N(c1cccc(-c2cc(C#N)c(N3CCN(C(=O)C4CC4)[C@H](C4CC4)C3)nc2C2CC2)c1)S(=O)(=O)C=C [Compound 452, (R)—N-(3-(5-cyano-6-(4-(cyclopropanecarbonyl)-3-cyclopropylpiperazin-1-yl)-2-cyclopropylpyridin-3-yl)phenyl)-N-(vinylsulfonyl)ethenesulfonamide]	< 500 nM	1000 to 10000 nM	1000 to 10000 nM
C=C(F)C(=O)N(C)c1cccc(-c2cc(C#N)c(N3CCN(C(=O)CCOC)[C@H](C)C3)nc2C2CC2)c1 [Compound 453, (R)—N-(3-(5-cyano-2-cyclopropyl-6-(4-(3-methoxypropanoyl)-3-methylpiperazin-1-yl)pyridin-3-yl)phenyl)-2-fluoro-N-methylacrylamide]	< 500 nM	500 to 1000 nM	< 500 nM
C=CC(=O)Nc1cccc(-c2cc(C#N)c(N3CCN(C(=O)C4CC4)[C@H](C4CC4)C3)nc2C2CC2)c1 [Compound 454, (R)—N-(3-(5-cyano-6-(4-(cyclopropanecarbonyl)-3-cyclopropylpiperazin-1-yl)-2-cyclopropylpyridin-3-yl)phenyl)acrylamide]	< 500 nM	< 500 nM	< 500 nM
C#CC(=O)N(C)c1cccc(-c2cc(C#N)c(N3CCN(C(=O)CCOC)[C@H](C)C3)nc2C2CC2)c1 [Compound 456]	< 500 nM	< 500 nM	< 500 nM
Cc1cc2c(-c3cc(C#N)c(N4CCN(C(=O)C5CC5)[C@H](C5CC5)C4)nc3C3CC3)cccc2cn1 [Compound 458, (R)-2-(4-(cyclopropanecarbonyl)-3-cyclopropylpiperazin-1-yl)-6-cyclopropyl-5-(3-methylisoquinolin-5-yl)nicotinonitrile]	< 500 nM	500 to 1000 nM	500 to 1000 nM
